Source: a compilation of properties of binary mixtures (doi:10.1016/j.molliq.2020.113538)

Assay: xn = mol fraction of the nth substance listed
Conditions: 101 kPa

CC[n+]1ccn(CCOC)c1.O=S(=O)([O-])C(F)(F)F + CCO
viscosity [mPa·s]
Conditions	x1 = 0.0996	x1 = 0.1999	x1 = 0.2996	x1 = 0.3984	x1 = 0.4991	x1 = 0.603	x1 = 0.699	x1 = 0.797	x1 = 0.899	x1 = 1
288.15 K	2.654	4.54	–	12.13	19.22	28.7	43.6	62.8	84.4	121
293.15 K	2.374	4.01	6.66	10.37	16.43	23.77	–	–	–	92.5
298.15 K	2.139	–	5.84	8.96	13.98	19.98	29.12	–	52.2	72.5
303.15 K	–	–	5.16	7.82	11.97	17.28	24.38	32.04	42.9	–
308.15 K	1.757	2.916	4.59	6.88	10.34	–	20.67	–	–	47.3
313.15 K	1.603	2.644	4.11	6.09	9.01	12.4	17.99	–	28.85	39
318.15 K	1.467	2.409	3.72	5.43	7.9	11.16	15.6	–	23.82	32.59

CCO + CC[n+]1ccn(CCOC)c1.O=S(=O)([O-])C(F)(F)F
x2 = 0
Conditions	viscosity [mPa·s]
288.15 K	1.319
293.15 K	1.195
298.15 K	1.086
303.15 K	0.989
308.15 K	0.903
313.15 K	0.825
318.15 K	0.757
